In US7985738B2, “Cytosine nucleoside analogs and isoflavones and uses thereof” (Institut National de la Recherche Scientifique, priority 2007, dated 2011):
Several values for one entry are separate records, joined by “and”; a condition that tells them apart may be missing. Equal entries are not always repeated.

Experiments:
[1] = system: HL-60 myeloid human leukemic cells; experiment: Inhibition/loss of clonogenicity in soft agar, HL-60; assay type: cell-based; details: 48 h
Method: (§1) Cell lines and drug exposure. Human myeloid (HL-60) and lymphoid (MOLT-3) leukemic cells were obtained from ATCC (ATCC #: CRL-1552; Manassas, Va. USA). MBA-MD-231 and Dld-1 cells were also used. Human cell lines were cultured in RPMI-1640 medium (Invitrogen, Burlington, Ontario) supplemented with 10% heat-inactivated fetal bovine serum (Wisent, St-Bruno, Quebec). The doubling times of HL-60 and MOLT-3 were 16-18 h and 23-24 h, respectively, whereas for both MBA-MD-231 and Dld-1 cells it was 24-27 h. The murine lymphoid leukemic cell line L1210 (ATCC #: CCL-219; Brandes et al., (1966). J Natl Cancer Inst. 37(4): 467-85) was cultured in RPMI-1640 with 5% heat-inactivated fetal calf serum and with 6 μM of 2-mercaptoethanol. The doubling time of the L1210 cells was about 10 h. From this cell line, a clone fully resistant to […], identified herein as L1210/ARAC, was generated after exposure of increasing doses of cytosine arabinoside for a period of 3 months (Schabel et al., (1984). Cancer Treat. Rep 67: 905-922). The doubling time of the L1210/ARAC cells was about 12 h. Human lung adenocarcinoma cells H2087, and Calu-6 non-small cell lung cancer cells, were obtained from ATCC (ATCC #: CRL-5922; Manassas, Va. USA) and cultured in DMEM and RPMI without HEPES, respectively. The cells were trypsinized with 0.25% Trypsin-EDTA (Invitrogen, Grand Island, N.Y.). The doubling time of the H2087 cells was about 35 h. Cell lines were incubated at 37° C. in 5% CO2 atmosphere.
(§2) Genistein (LC Laboratories, Woburn, Mass.) was dissolved in DMSO (Sigma, Oakville, Ontario) to prepare stock solutions of 2 and 20 mM and kept frozen at −20° C. until use. Decitabine (DAC, Dacogen™, 5-aza-2′-deoxycytidine) at 1000 μg/ml in PBS was kept at −80° C. […]
(§3) Inhibition of clonogenicity. […] After 7 d of incubation for murine cell lines or 15 d for human cell lines, the number of colonies (>50 cells) was counted. […] The experiments were repeated three times and expressed as mean±S.E.M.
(§4) Statistical analyses. […] The p value was evaluated accordingly to Tukey's method (Hastings, C et al. (1947). Ann. Math. Statist. 18,413-426). […]

[2] = system: MOLT-3 lymphoid human leukemic cells; experiment: Inhibition/loss of clonogenicity in soft agar, MOLT-3; assay type: cell-based; details: 48 h
Method: as §1, §2, §3, §4

[3] = system: L1210 murine lymphoid leukemic cells; experiment: Inhibition/loss of clonogenicity in soft agar, L1210; assay type: cell-based
Method: as §1
(§5) Genistein (LC Laboratories, Woburn, Mass.) was dissolved in DMSO (Sigma, Oakville, Ontario) to prepare stock solutions of 2 and 20 mM and kept frozen at −20° C. until use. Decitabine (DAC, Dacogen™, 5-aza-2′-deoxycytidine) at 1000 μg/ml in PBS was kept at −80° C. Before each experiment, Decitabine was diluted at 1 μg/ml (for murine leukemic cell lines), 10 μg/ml (for human leukemic cells), or 100 μg/ml (for lung carcinoma cells) with sterile PBS and kept on ice until use.
Inhibition of clonogenicity. It is known that cancer cells form clones in soft agar (clonogenicity). Irreversible eradication of the clonogenicity of cancer stem cells is one of the objectives of chemotherapy since it is related to cell proliferation potential. Human and murine leukemic cell lines in log phase at 5×10^4 cells/ml were placed in tissue culture flasks and exposed to the drug combinations for 48 and 24 h respectively. […] After 7 d of incubation for murine cell lines or 15 d for human cell lines, the number of colonies (>50 cells) was counted. […] The experiments were repeated three times and expressed as mean±S.E.M.
as §4

[4] = system: H2087 lung carcinoma cells; experiment: Colony formation assay, H2087; assay type: cell-based, human; details: decitabine 220 nM and/or genistein 5 μM, 24 h, mean ± S.D., relative to untreated cells
Method: as §1, §5
For human lung carcinoma H2087 cells, 100 cells were placed in wells of a 6-well dish (day 0); for Calu-6, MBA-MD-231 and Dld-1, 200 cells were seeded. On day 1, Decitabine (50 ng/ml) and genistein (5 μM) were added concomitantly to the cells for 24 h. Drugs were then removed and wells were rinsed with 1 ml of medium. Fresh medium (2 ml) was added and after 16-19 d colonies were stained with 0.5% methylene blue in 50% methanol and counted. The inhibition/loss of clonogenicity (%) was expressed relative to control (untreated) cells. The experiments were repeated three times and expressed as mean±S.D or mean±SEM for Calu-6, MBA-MD-231 and Dld-1 cells.
as §4

[5] = system: human lung carcinoma cell line (CALU-6); experiment: Colony formation assay, CALU-6; assay type: cell-based
Method: as §1, with “atmosphere. […]” for “atmosphere.”
For human lung carcinoma H2087 cells, 100 cells were placed in wells of a 6-well dish (day 0); for Calu-6, MBA-MD-231 and Dld-1, 200 cells were seeded. […] Fresh medium (2 ml) was added and after 16-19 d colonies were stained with 0.5% methylene blue in 50% methanol and counted. […] The experiments were repeated three times and expressed as mean±S.D or mean±SEM for Calu-6, MBA-MD-231 and Dld-1 cells.
as §4

[6] = system: L1210 leukemic cells; experiment: Survival of CD2F1 mice bearing L1210 leukemia; assay type: in vivo; details: i.v. 10^4 L1210 cells; for Increase in life span (%): 0.5% genistein in diet and/or DAC 2 mg/kg 8 h i.v. infusion on day 1
Method: In vivo experiments. Male CD2F1 mice (24-28 g) were purchased from Taconic Biotechnology (Germantown, N.Y., USA). Mice were acclimatized to housing conditions at least 2 weeks before experiments. They received food and water ad libitum. […] Seven days later, the ascetic fluid was obtained from the mice and a cell count of the leukemic cells was performed with a haemocytometer prior to subsequent transplantation. Mice were injected intravenously (i.v.) with 0.1 ml of L1210 or L1210/ARAC (10^4) cells. […] Mice were acclimated to the genistein-enriched regimen over a 10-days period before injection of leukemic cells. A Harvard apparatus compact infusion pump was used at a flow rate of 0.22 ml/h via 25-gauge needle into the lateral tail vein. DAC was given at 2 mg/kg for 8 h. Decitabine was prepared fresh before each experiment, dissolved in ½ PBS and sterilized by 0.2 μm filtration. Mice were placed in a restrainer cage during treatment with access to food. Toxicity was evaluated by body weight loss. Mice fed with genistein-enriched diet kept the same regimen during all the experiment. The survival time of each group of mice was monitored and the increased in life span (ILS) calculated.
Statistical analyses. In order to evaluate whether the inter-group variations were random, one-way ANOVA testing was performed. […] A p value≦0.05 was taken for statistical significance.

[7] = system: L1210/ARAC leukemic cells; experiment: Survival of CD2F1 mice bearing L1210/ARAC leukemia; assay type: in vivo; details: i.v. 10^4 L1210/ARAC cells, 0.5% genistein in diet and/or DAC 2 mg/kg 8 h i.v. infusion on day 1
Method: In vivo experiments. Male CD2F1 mice (24-28 g) were purchased from Taconic Biotechnology (Germantown, N.Y., USA). Mice were acclimatized to housing conditions at least 2 weeks before experiments. They received food and water ad libitum. For transplantation of leukemia cells in mice, intraperitonal (i.p.) injections of 10^4 L1210 or L1210/ARAC cells in RPMI-1640 medium were performed weekly into the CD2F1 mice. Seven days later, the ascetic fluid was obtained from the mice and a cell count of the leukemic cells was performed with a haemocytometer prior to subsequent transplantation. Mice were injected intravenously (i.v.) with 0.1 ml of L1210 or L1210/ARAC (10^4) cells. Control groups that received the control diet 2016 (Teklad Global 16% Protein Rodent Diet™; Harlan Teklad, Madison Wis.) were either treated or not with DAC. To test the effect of genistein in the diet, mice were fed with 2016 diet supplemented with 0.5% genistein (Harlan Teklad) and treated with either DAC or the vehicle alone. Mice were acclimated to the genistein-enriched regimen over a 10-days period before injection of leukemic cells. A Harvard apparatus compact infusion pump was used at a flow rate of 0.22 ml/h via 25-gauge needle into the lateral tail vein. DAC was given at 2 mg/kg for 8 h. Decitabine was prepared fresh before each experiment, dissolved in ½ PBS and sterilized by 0.2 μm filtration. Mice were placed in a restrainer cage during treatment with access to food. Toxicity was evaluated by body weight loss. Mice fed with genistein-enriched diet kept the same regimen during all the experiment. The survival time of each group of mice was monitored and the increased in life span (ILS) calculated.
Statistical analyses. In order to evaluate whether the inter-group variations were random, one-way ANOVA testing was performed. The p value was evaluated accordingly to Tukey's method (Hastings, C et al. (1947). Ann. Math. Statist. 18,413-426). A p value≦0.05 was taken for statistical significance. Valeriote and Lin's method (Valeriote, F and Lin, H. S. 1975. Cancer Chemother. Rep. 59(5): 895-900) was used to determine if the interaction observed between drugs in the clonogenic assays was additive, synergistic or antagonistic.

[8] = system: L1210/ARAC cells (DAC-resistant clone of L1210); experiment: Inhibition/loss of clonogenicity in soft agar, L1210/ARAC; assay type: cell-based, murine; details: alone or with DAC 4.4 nM
Method: as §1, with “The doubling time of the L1210/ARAC cells was about 12 h. Human lung adenocarcinoma cells H2087, and Calu-6 non-small cell lung cancer cells, were obtained from ATCC (ATCC #: CRL-5922; Manassas, Va. USA) and cultured in DMEM and RPMI without HEPES, respectively. The cells were trypsinized with 0.25% Trypsin-EDTA (Invitrogen, Grand Island, N.Y.). The doubling time of the H2087 cells was about 35 h. Cell lines were incubated at 37° C. in 5% CO2 atmosphere.” left out
as §3, §4

[9] = DAC 44 nM alone, relative to control cells
[10] = genistein 0.1 μM, alone or with DAC 44 nM
[11] = genistein 1 μM, alone or with DAC 44 nM

`Nc1ncn([C@H]2C[C@H](O)[C@@H](CO)O2)c(=O)n1` [DAC, 4-Amino-1-(2-deoxy-β-D-ribofuranosyl)-1,3,5-triazin-2(1H)-one, reference compound] was tested, and the loss of clonogenicity [1, 9] was 20% and 17%, the loss of clonogenicity [2, 9] was 40% and 37% and the loss of clonogenicity ([3]; DAC 4.4 nM alone, relative to control cells) was 28%. The loss of clonogenicity ([3]; DAC 4.4 nM alone, relative to control cells, listed as Decitabine) was “about 30%”, the “Loss of clonogenicity (%)” value [4] was 60% and the “Loss of clonogenicity (%)” value ([4]; listed as Decitabine) was 60 ± 4.1%. The “Loss of clonogenicity (%)” value ([5]; decitabine 10 ng/ml alone) was 36.6%, the “Increase in life span (%)” value [6] was 66.8% and the “Increase in life span (%)” value [7] was −2.3%. For the same compound, the “Survival time” value [7] was 9.42 ± 0.50 days.

`O=c1c(-c2ccc(O)cc2)coc2cc(O)cc(O)c12` [genistein] was tested, and the loss of clonogenicity [1, 10] was 1%, the loss of clonogenicity [1, 11] was 15% and the loss of clonogenicity [2, 10] was 1%. For the same compound, the loss of clonogenicity [2, 11] was 12%, the loss of clonogenicity ([3]; genistein 0.1 μM, alone or with DAC 4.4 nM) was 2% and the loss of clonogenicity ([3]; genistein 1 μM, alone or with DAC 4.4 nM) was 13%. For the same compound, the loss of clonogenicity ([8]; genistein 0.1 μM) was 2%, the loss of clonogenicity ([8]; genistein 1 μM) was 11% and the “Loss of clonogenicity (%)” value [4] was 3.8%. For the same compound, the “Loss of clonogenicity (%)” value ([4]; listed as Genistein) was 3.8 ± 9.4%, the “Loss of clonogenicity (%)” value ([5]; genistein 0.1 μM, alone or with decitabine 10 ng/ml) was 4.9% and the “Loss of clonogenicity (%)” value ([5]; genistein 10 μM, alone or with decitabine 10 ng/ml) was 31.7%. The “Increase in life span (%)” value [6] was 7.0. (p < 0.001) %, the “survival time after injection of leukemia” value ([6]; 0.5% genistein-enriched diet) was 7.85 ± 0.10 days and the “Increase in life span (%)” value [7] was 7.88%. For the same compound, the “Survival time” value [7] was 10.39 ± 1.01 days.
